Literature values as cited in patent US10226421B2, “Pharmaceutical composition containing budesonide and formoterol” (Zambon S.P.A., priority 2013, dated 2019).

Details: phospholipids in the presence of a humidity

glass-rubber transition temperatures (Tg) [°C] | Compound
41 | CCCCCCCCCCCCCCCC(=O)OC[C@H](COP(=O)([O-])OCC[N+](C)(C)C)OC(=O)CCCCCCCCCCCCCCC [DPPC, dipalmitoyl-phosphatidylcholine]
63 | CCCCCCCCCCCCCCCC(=O)OCC(COP(=O)(O)OCCN)OC(=O)CCCCCCCCCCCCCCC (stereo not drawn) [DPPE, dipalmitoyl-phosphatidylethanolamine]
55 | CCCCCCCCCCCCCCCCCC(=O)OC[C@H](COP(=O)([O-])OCC[N+](C)(C)C)OC(=O)CCCCCCCCCCCCCCCCC [DSPC, distearoyl-phosphatidylcholine]
